44 compounds from patent publication US20260083723A1, “THERAPEUTIC AGENT OR PROPHYLACTIC AGENT FOR AMYOTROPHIC LATERAL SCLEROSIS” (Toray Industries, Inc., priority 2022, published 2026) can be followed below.

Structures are written as SMILES. Where a name gives a salt, the structure may show the parent alone. Some results are limits rather than exact numbers.

A short description of the first experiment: In vitro radical scavenging action (DPPH method).
Conditions: not given
As to the method: The radical scavenging action of a test compound can be evaluated using an in vitro test and, for example, by a method (Antioxidants, 2019, vol. 258) using a stable radical, 1,1-diphenyl-2-picrylhydrazil (DPPH).
Radical scavenging action was evaluated using the DPPH method in the compound of Comparative Example 1, which is a tetrahydroquinoxaline derivative, and in the tetrahydroquinoline derivative (I) or a pharmaceutically acceptable salt thereof. The DPPH method was performed using an antioxidant capacity measurement kit (Dojindo Laboratories).
A test compound was dissolved in DMSO, and the resulting solution was then mixed with an assay buffer and a DPPH solution, which are included in the kit, to a total volume of 200 μL to obtain a final concentration of 10% DMSO, and the reaction was allowed to proceed. Wells added with […] ferrostatin-1, a radical scavenger, were grouped as “control,” and wells not added with test compound were grouped as “background”. The test compound was serially diluted 3-fold starting from a maximum concentration of 100 μmol/L, and the diluted test compound (1.2, 3.7, 11.1, 33.3, or 100 μmol/L) was added and allowed to react at room temperature. Thirty minutes after the reaction, the absorbance at 517 nm was measured, and the average absorbance value was calculated (N=2). The radical scavenging action of the test compound (hereinafter referred to as radical scavenging rate, %) was calculated based on Equation 2. The EC50 value of the test compound was calculated from the radical scavenging rate.
A note “no detection of radical scavenging action (N.D.),” is given to compounds with a EC50 of >100 μmol/L.
In general terms: Loss of DPPH colour is used to gauge radical scavenging.
As to `c1ccc(C2CNc3ccccc3N2)cc1` (stereo not drawn) [Comparative Example 1, 2-phenyl-1,2,3,4-tetrahydroquinoxaline, reference compound], the “radical scavenging action (in words)” value was “exhibited radical scavenging action”.

Staying with this experiment, now noted: 1.2-100 μmol/L, 30 minutes at room temperature, absorbance at 517 nm.
In the case of `CC1(C)CN(C(=O)Cc2ccc3c(c2)CCC(c2ccccc2)N3)C1` (stereo not drawn) [Example 146, 1-(3,3-dimethylazetidin-1-yl)-2-(2-phenyl-1,2,3,4-tetrahydroquinolin-6-yl)ethan-1-one], the EC50 (usually the midpoint of the concentration-response curve) is greater than 100 µM.
Still for that read-out and setting: for `CC(C)(C)NC(=O)Cc1ccc2c(c1)CCC(c1ccccc1)N2` (stereo not drawn) [Example 61, N-(tert-butyl)-2-(2-phenyl-1,2,3,4-tetrahydroquinolin-6-yl)acetamide] the value was greater than 100 µM; for `NC(=O)c1ccc(C2CCc3c(Cl)cccc3N2)cc1` (stereo not drawn) [Example 138, 4-(5-chloro-1,2,3,4-tetrahydroquinolin-2-yl)benzamide], greater than 100 µM; for `NS(=O)(=O)c1ccc(C2CCc3cc(F)ccc3N2)cc1` (stereo not drawn) [Example 109, 4-(6-fluoro-1,2,3,4-tetrahydroquinolin-2-yl)benzenesulfonamide], greater than 100 µM.
On the same count and under the same terms, the same measure for `NS(=O)(=O)c1ccc(C2CCc3ccc(F)cc3N2)cc1` (stereo not drawn) [Example 118, 4-(7-fluoro-1,2,3,4-tetrahydroquinolin-2-yl)benzenesulfonamide]: greater than 100 µM; for `Clc1ccc2c(c1)CCC(c1ccccc1)N2` (stereo not drawn) [Example 83, 6-chloro-2-phenyl-1,2,3,4-tetrahydroquinoline]: greater than 100 µM.
Still for that read-out and setting: the same measure for `c1ccc(C2CNc3ccccc3N2)cc1` (stereo not drawn) [Comparative Example 1, 2-phenyl-1,2,3,4-tetrahydroquinoxaline, reference compound]: 8.54 µM.
Compound `O=C(Cc1ccc2c(c1)CCC(c1ccccc1)N2)N1CCNCC1` (stereo not drawn) [Example 158, 2-(2-phenyl-1,2,3,4-tetrahydroquinolin-6-yl)-1-(piperazin-1-yl)ethan-1-one] displayed an EC50 greater than 100 µM.
Same read-out and setting: for `CN(CCO)C(=O)Cc1ccc2c(c1)CCC(c1ccccc1)N2` (stereo not drawn) [Example 150, N-(2-hydroxyethyl)-N-methyl-2-(2-phenyl-1,2,3,4-tetrahydroquinolin-6-yl)acetamide] the value was greater than 100 µM; for `NS(=O)(=O)c1ccc(C2CCc3cc(F)ccc3N2)cc1` (stereo not drawn) [Example 108, 4-(6-fluoro-1,2,3,4-tetrahydroquinolin-2-yl)benzenesulfonamide], greater than 100 µM.
Still for that read-out and setting: the same measure for `O=C(Cc1ccc2c(c1)CCC(c1ccccc1)N2)N1CCOCC1` (stereo not drawn) [Example 145, 1-morpholino-2-(2-phenyl-1,2,3,4-tetrahydroquinolin-6-yl)ethan-1-one]: greater than 100 µM.
On the same count and under the same terms, the same measure for `Fc1ccc(C2CCc3ccccc3N2)cc1` (stereo not drawn) [Example 26, 2-(4-fluorophenyl)-1,2,3,4-tetrahydroquinoline]: greater than 100 µM.
The compound `O=C1CN(C(=O)Cc2ccc3c(c2)CCC(c2ccccc2)N3)CCN1` (stereo not drawn) [Example 157] yielded an EC50 greater than 100 µM.
On the same count and under the same terms, for `c1ccc([C@H]2CCc3ccccc3N2)cc1` [Example 2, (R)-2-phenyl-1,2,3,4-tetrahydroquinoline] the value was greater than 100 µM.
Still for that read-out and setting: for `Fc1ccc2c(c1)CCC(c1ccccc1)N2` (stereo not drawn) [Example 82, 6-fluoro-2-phenyl-1,2,3,4-tetrahydroquinoline] the value was greater than 100 µM; for `FC(F)(F)Oc1ccc(C2CCc3ccccc3N2)cc1` (stereo not drawn) [Example 31, 2-(4-(trifluoromethoxy)phenyl)-1,2,3,4-tetrahydroquinoline], greater than 100 µM; for `NC(=O)c1ccc(C2CCc3ccccc3N2)cc1` (stereo not drawn) [Example 37, 4-(1,2,3,4-tetrahydroquinolin-2-yl)benzamide], greater than 100 µM.
Still for that read-out and setting: the same measure for `COC1CN(C(=O)Cc2ccc3c(c2)CCC(c2ccccc2)N3)C1` (stereo not drawn) [Example 147, 1-(3-methoxyazetidin-1-yl)-2-(2-phenyl-1,2,3,4-tetrahydroquinolin-6-yl)ethan-1-one]: greater than 100 µM.
Compound `CC(=O)Nc1ccc(C2CCc3ccccc3N2)cc1` (stereo not drawn) [Example 21, N-(4-(1,2,3,4-tetrahydroquinolin-2-yl)phenyl)acetamide] gave an EC50 greater than 100 µM.
The same measure, in the same setting: for `Clc1cccc2c1CCC(c1ccccc1)N2` (stereo not drawn) [Example 67, 5-chloro-2-phenyl-1,2,3,4-tetrahydroquinoline] the value was greater than 100 µM; for `O=C(Cc1ccc2c(c1)CCC(c1ccccc1)N2)N1CCC1` (stereo not drawn) [Example 151, 1-(azetidin-1-yl)-2-(2-phenyl-1,2,3,4-tetrahydroquinolin-6-yl)ethan-1-one], greater than 100 µM.
On the same count and under the same terms, the same measure for `NS(=O)(=O)c1ccc(C2CCc3ccccc3N2)cc1` (stereo not drawn) [Example 32, 4-(1,2,3,4-tetrahydroquinolin-2-yl)benzenesulfonamide]: greater than 100 µM; for `FC(F)(F)Oc1ccc2c(c1)CCC(c1ccccc1)N2` (stereo not drawn) [Example 81, 2-phenyl-6-(trifluoromethoxy)-1,2,3,4-tetrahydroquinoline]: greater than 100 µM.
Still for that read-out and setting: for `FC(F)(F)c1ccc(C2CCc3ccccc3N2)cc1` (stereo not drawn) [Example 29, 2-(4-(trifluoromethyl)phenyl)-1,2,3,4-tetrahydroquinoline] the value was greater than 100 µM; for `O=C(Cc1ccc2c(c1)CCC(c1ccccc1)N2)N1CC(O)C1` (stereo not drawn) [Example 62, 1-(3-hydroxyazetidin-1-yl)-2-(2-phenyl-1,2,3,4-tetrahydroquinolin-6-yl)ethan-1-one], greater than 100 µM.
As for `O=C(Cc1ccc2c(c1)CCC(c1ccccc1)N2)NC1COC1` (stereo not drawn) [Example 148, N-(oxetan-3-yl)-2-(2-phenyl-1,2,3,4-tetrahydroquinolin-6-yl)acetamide], the EC50 was greater than 100 µM.
On the same count and under the same terms, for `NC(=O)c1ccc(C2CCc3cc(F)ccc3N2)cc1` (stereo not drawn) [Example 132, 4-(6-fluoro-1,2,3,4-tetrahydroquinolin-2-yl)benzamide] the value was greater than 100 µM; for `Clc1ccc2c(c1)NC(c1ccccc1)CC2` (stereo not drawn) [Example 69, 7-chloro-2-phenyl-1,2,3,4-tetrahydroquinoline], greater than 100 µM.
For the compound `NS(=O)(=O)c1ccc(C2CCc3c(Cl)cccc3N2)cc1` (stereo not drawn) [Example 134, 4-(5-chloro-1,2,3,4-tetrahydroquinolin-2-yl)benzenesulfonamide], the EC50 was greater than 100 µM.
Same read-out and setting: the same measure for `Cc1ccc2c(c1)CCC(c1ccc(S(N)(=O)=O)cc1)N2` (stereo not drawn) [Example 119, 4-(6-methyl-1,2,3,4-tetrahydroquinolin-2-yl)benzenesulfonamide]: greater than 100 µM; for `CS(=O)(=O)c1ccc(C2CCc3ccccc3N2)cc1` (stereo not drawn) [Example 16, 2-(4-(methylsulfonyl)phenyl)-1,2,3,4-tetrahydroquinoline]: greater than 100 µM; for `Cc1ccc2c(c1)CCC(c1ccc(C(N)=O)cc1)N2` (stereo not drawn) [Example 99, 4-(6-methyl-1,2,3,4-tetrahydroquinolin-2-yl)benzamide]: greater than 100 µM.
On the same count and under the same terms, for `Fc1ccc2c(c1)NC(c1ccccc1)CC2` (stereo not drawn) [Example 68, 7-fluoro-2-phenyl-1,2,3,4-tetrahydroquinoline] the value was greater than 100 µM; for `O=C(Cc1ccc2c(c1)CCC(c1ccccc1)N2)NC1CC1` (stereo not drawn) [Example 152, N-cyclopropyl-2-(2-phenyl-1,2,3,4-tetrahydroquinolin-6-yl)acetamide], greater than 100 µM; for `OCc1ccc2c(c1)CCC(c1ccccc1)N2` (stereo not drawn) [Example 58, (2-phenyl-1,2,3,4-tetrahydroquinolin-6-yl)methanol], greater than 100 µM.
On the same count and under the same terms, for `NC(=O)c1ccc(C2CCc3cc(Cl)ccc3N2)cc1` (stereo not drawn) [Example 121, 4-(6-chloro-1,2,3,4-tetrahydroquinolin-2-yl)benzamide] the value was greater than 100 µM.
In turn, `O=C(Cc1ccc2c(c1)CCC(c1ccccc1)N2)N1CC(F)(F)C1` (stereo not drawn) [Example 149, 1-(3,3-difluoroazetidin-1-yl)-2-(2-phenyl-1,2,3,4-tetrahydroquinolin-6-yl)ethan-1-one] came in with an EC50 greater than 100 µM.
Still for that read-out and setting: the same measure for `O=C(Cc1ccc2c(c1)CCC(c1ccccc1)N2)N1CC(F)(F)C1` (stereo not drawn) [Example 160, 1-(3,3-difluoroazetidin-1-yl)-2-(2-phenyl-1,2,3,4-tetrahydroquinolin-6-yl)ethan-1-one]: greater than 100 µM; for `NS(=O)(=O)c1ccc(C2CCc3ccccc3N2)cc1` (stereo not drawn) [Example 34, 4-(1,2,3,4-tetrahydroquinolin-2-yl)benzenesulfonamide]: greater than 100 µM; for `NS(=O)(=O)c1ccc(C2CCc3c(F)cccc3N2)cc1` (stereo not drawn) [Example 135, 4-(5-fluoro-1,2,3,4-tetrahydroquinolin-2-yl)benzenesulfonamide]: greater than 100 µM.
The same measure, in the same setting: the same measure for `Cc1cccc2c1CCC(c1ccc(S(N)(=O)=O)cc1)N2` (stereo not drawn) [Example 112, 4-(5-methyl-1,2,3,4-tetrahydroquinolin-2-yl)benzenesulfonamide]: greater than 100 µM.
`Fc1cccc2c1CCC(c1ccccc1)N2` (stereo not drawn) [Example 66, 5-fluoro-2-phenyl-1,2,3,4-tetrahydroquinoline] registered an EC50 greater than 100 µM.
Same read-out and setting: the same measure for `NS(=O)(=O)c1ccc(C2CCc3ccccc3N2)cc1` (stereo not drawn) [Example 33, 4-(1,2,3,4-tetrahydroquinolin-2-yl)benzenesulfonamide]: greater than 100 µM; for `O=C(Cc1ccc2c(c1)CCC(c1ccccc1)N2)N1CC(O)C1` (stereo not drawn) [Example 143, 1-(3-hydroxyazetidin-1-yl)-2-(2-phenyl-1,2,3,4-tetrahydroquinolin-6-yl)ethan-1-one hydrochloride]: greater than 100 µM.
